Patent publication US5087634A, “N-substituted imidazol-2-one compounds for treatment of circulatory disorders” (G. D. Searle & Co., priority 1990, dated 1992)
“And” between values parts separate entries of the source, which are not always exact repeats. Equal values may be shown once. One block for each compound: values may come before it.

Key:
rabbit aortic rings = biological target: T1, rabbit aortic rings (Oryctolagus cuniculus, UniProt P34976); test: In Vitro Vascular Smooth Muscle-Response for AII (rabbit aortic rings); set-up: species or system rabbit (male New Zealand white); settings: antagonist 10^-5 M for 5 minutes before AII; rabbit aorta rings, 37° C.; read-out: pA2 value (converted)
T1 construct: The thoracic aorta was removed, cleaned of adherent fat and connective tissue and then cut into 3-mm ring segments; from tissue; host or cells: thoracic aorta rings of male New Zealand white rabbits, endothelium removed
T1 sequence (P34976 1-359): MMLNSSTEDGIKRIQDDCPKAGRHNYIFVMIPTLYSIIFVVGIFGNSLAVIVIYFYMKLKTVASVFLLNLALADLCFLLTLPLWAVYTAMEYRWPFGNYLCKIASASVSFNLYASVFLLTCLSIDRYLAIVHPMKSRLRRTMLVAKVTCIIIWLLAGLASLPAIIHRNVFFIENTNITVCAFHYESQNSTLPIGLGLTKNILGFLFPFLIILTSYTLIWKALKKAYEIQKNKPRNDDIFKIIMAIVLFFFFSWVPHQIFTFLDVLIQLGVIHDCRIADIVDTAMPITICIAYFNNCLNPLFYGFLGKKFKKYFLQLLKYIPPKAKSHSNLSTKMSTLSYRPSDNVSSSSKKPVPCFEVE
Method: The compounds of the invention were tested for antagonist activity in rabbit aortic rings. Male New Zealand white rabbits (2-2.5 kg) were sacrificed using an overdose of pentobarbital and exsanguinated via the carotid arteries. The thoracic aorta was removed, cleaned of adherent fat and connective tissue and then cut into 3-mm ring segments. The endothelium was removed from the rings by gently sliding a rolled-up piece of filter paper into the vessel lumen. The rings were then mounted in a water-jacketed tissue bath, maintained at 37° C., between moveable and fixed ends of a stainless steel wire with the moveable end attached to an FT03 Grass transducer coupled to a Model 7D Grass Polygraph for recording isometric force responses. The bath was filled with 20 ml of oxygenated (95% oxygen/5% carbon dioxide) Krebs solution of the following composition (mM): 130 NaCl, 15 NaHCO3, 15 KCl, 1.2 NaH2 P04, 1.2 MgSO4, 2.5 CaCl2, and 11.4 glucose. The preparations were equilibrated for one hour before approximately one gram of passive tension was placed on the rings. Angiotensin II concentration-response curves were then recorded (3×10^-10 to 1×10^-5 M). […] The effectiveness of the test compound was expressed in terms of pA2 values and were calculated according to H. O. Schild [Br. J. Pharmacol. Chemother., 2, 189-206 (1947)]. […] Each test antagonist was evaluated in aorta rings from two, rabbits.

[1] = biological target: smooth muscle angiotensin II receptor; test: Angiotensin II Binding Activity (displacement of 125I-AII from rat uterine membranes); settings: 25° C., 60 min, read-out: IC50 (50% displacement of the total specifically bound 125I-AII)
Method: Compounds of the invention were tested for ability to bind to the smooth muscle angiotensin II receptor using a rat uterine membrane preparation. Angiotensin II (AII) was purchased from Peninsula Labs. 125I-angiotensin II (specific activity of 2200 Ci/mmol) was purchased from Du Pont-New England Nuclear. Other chemicals were obtained from Sigma Chemical Co. This assay was carried out according to the method of Douglas et al [Endocrinoloby, 106, 120-124 (1980)]. Rat uterine membranes were prepared from fresh tissue. All procedures were carried out at 4° C. Uteri were stripped of fat and homogenized in phosphate-buffered saline at pH 7.4 containing 5 mM EDTA. The homogenate was centrifuged at 1500× g for 20 min., and the supernatant was recentrifuged at 100,000× g for 60 min. The pellet was resuspended in buffer consisting of 2 mM EDTA and 50 mM Tris-HCl (pH 7.5) to a final protein concentration of 4 mg/ml. Assay tubes were charged with 0.25 ml of a solution containing 5 mM MgCl2, 2 mM EDTA, 0.5% bovine serum albumin, 50 mM Tris-HCl, pH 7.5 and ^125 I-AJI (approximately 10^5 cpm) in the absence or in the presence of unlabelled ligand. […] Filters were assayed for radioactivity in a Micromedic gamma counter. […] Specific binding was calculated as total binding minus nonspecific binding. […] Binding data were analyzed by a nonlinear least-squares curve fitting program.

[2] = system: angiotensin II pressor response; test: In Vivo Intragastric Pressor Assay Response for AII Antagonists; set-up: species or system rat (male Sprague-Dawley); settings: dose 10 (units not given), gavage, listed as EX. #1
Method: Male Sprague-Dawley rats weighing 225-300 grams were anesthetized with methohexital (30 mg/kg, i.p.) and catheters were implanted into the femoral artery and vein. The catheters were tunneled subcutaneously to exit dorsally, posterior to the head and between the scapulae. The catheters were filled with heparin (1000 units/ml of saline). The rats were returned to their cage and allowed regular rat chow and water ad libitum. After full recovery from surgery (3-4 days), rats were placed in Lucite holders and the arterial line was connected to a pressure transducer. Arterial pressure was recorded on a Gould polygraph (mmHg). […] After allowing one hour for pressure to stabilize, the test compound (suspended in 0.5% methylcellulose in water) was administered by gavage. The volume administered was 2 ml/kg body weight. Arterial pressure was monitored for 5 hours post-dosing. The angiotensin II infusion was then discontinued and pressure was allowed to reach a stable recovery level. Percent inhibition (%I) of the angiotensin II pressor response was calculated from the difference in pressure at a given timepoint post-dosing with the test compound and the antiotensin II-infused pressure, divided by the difference in pressure with and without the angiotensin II infusion; this value was multiplied by 100. Duration of action of a test compound was defined as the time taken for pressure to return to angiotensin II-infused baseline levels after compound administration. One compound at one dose was tested in each rat. The compound of Example I was tested in two rats.

angiotensin II = settings: binding experiments, functional assays and in vivo tests; cited from earlier work
angiotensin II receptors = settings: cited from earlier work

Kb (rabbit aortic rings): 2.51 nM
IC50 [1]: 6.4 nM
SMILES: CCCCc1cn(CCCC)c(=O)n1Cc1ccc(-c2ccccc2-c2nnn[nH]2)cc1 [Example 1, 1,4-dibutyl-1,3-dihydro-3-[2'-(1H-tetrazol-5-yl)[1,1'biphenyl]-4-ylmethyl]-2H-imidazol-2-one]
mean arterial pressure after administration, time 10 ([2]; time 10, AII infusion 50 ng/kg/min, two rats (baseline/after AII 116/168 and 126/175 mmHg)): 165 mmHg and 166 mmHg
mean arterial pressure after administration, time 20 ([2]; time 20, AII-infused rats): 163 mmHg and 155 mmHg
mean arterial pressure after administration, time 30 ([2]; time 30, AII-infused rats): 159 mmHg and 147 mmHg
% inhibition (% I) of the AII pressor response, time 40 ([2]; time 40, AII-infused rats): 41% and 58%
mean arterial pressure after administration, time 40 ([2]; time 40, AII-infused rats): 146 mmHg and 147 mmHg
% inhibition (% I) of the AII pressor response, time 50 ([2]; time 50, AII-infused rats): 45% and 89%
mean arterial pressure after administration, time 50 ([2]; time 50, AII-infused rats): 144 mmHg and 132 mmHg
% inhibition (% I) of the AII pressor response, time 60 ([2]; time 60, AII-infused rats): 54% and 88%
mean arterial pressure after administration, time 60 ([2]; time 60, AII-infused rats): 140 mmHg and 132 mmHg
% inhibition (% I) of the AII pressor response, time 90 ([2]; time 90, AII-infused rats): 86% and 96%
mean arterial pressure after administration, time 90 ([2]; time 90, AII-infused rats): 123 mmHg and 128 mmHg
% inhibition (% I) of the AII pressor response, time 120 ([2]; time 120, AII-infused rats): 85% and 103%
mean arterial pressure after administration, time 120 ([2]; time 120, AII-infused rats): 124 mmHg and 125 mmHg
% inhibition (% I) of the AII pressor response, time 150 ([2]; time 150, AII-infused rats): 93% and 97%
mean arterial pressure after administration, time 150 ([2]; time 150, AII-infused rats): 119 mmHg and 128 mmHg
% inhibition (% I) of the AII pressor response, time 180 ([2]; time 180, AII-infused rats): 96% and 97%
mean arterial pressure after administration, time 180 ([2]; time 180, AII-infused rats): 117 mmHg and 127 mmHg
% inhibition (% I) of the AII pressor response, time 210 ([2]; time 210, AII-infused rats): 106% and 98%
mean arterial pressure after administration, time 210 ([2]; time 210, AII-infused rats): 113 mmHg and 127 mmHg
% inhibition (% I) of the AII pressor response, time 240 ([2]; time 240, AII-infused rats): 102% and 89%
mean arterial pressure after administration, time 240 ([2]; time 240, AII-infused rats): 115 mmHg and 131 mmHg
% inhibition (% I) of the AII pressor response, time 270 ([2]; time 270, AII-infused rats): 96% and 92%
mean arterial pressure after administration, time 270 ([2]; time 270, AII-infused rats): 117 mmHg and 130 mmHg
% inhibition (% I) of the AII pressor response, time 300 ([2]; time 300, AII-infused rats): 97% and 87%
mean arterial pressure after administration, time 300 ([2]; time 300, AII-infused rats): 117 mmHg and 133 mmHg

SMILES: CCCCc1nc(Cl)c(CC(=O)O)n1Cc1ccccc1[N+](=O)[O-] [2-butyl-4-choloro-l-(2-nitrobenzyl)imidazole-5-acetic acid]
angiotensin II antagonist activity (angiotensin II): specific competitive angiotensin II antagonist activity

SMILES: CCCCc1nc(Cl)c(CC(=O)O)n1Cc1ccccc1Cl [2-n-butyl-4-chloro-l-(2-chlorobenzyl)imidazole-5-acetic acid]
angiotensin II antagonist activity (angiotensin II): specific competitive angiotensin II antagonist activity

SMILES: CNCC(=O)N[C@@H](CCCN=C(N)N)C(=O)N[C@H](C(=O)N[C@@H](Cc1ccc(O)cc1)C(=O)N[C@H](C(=O)N[C@@H](Cc1cnc[nH]1)C(=O)N1CCC[C@H]1C(=O)N[C@@H](C)C(=O)O)C(C)C)C(C)C [Saralasin]
residual agonist activity (angiotensin II receptors): significant residual agonist activity
